Experimental findings from PubChem BioAssay AID720642 (The Scripps Research Institute Molecular Screening Center, 2013) are described below.

Each structure is given as a SMILES string. The source made the active and inactive calls.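 The calls were made as follows: active = EC50 activation potency at or below 10 µM in this mu opioid counterscreen; inactive = EC50 above 10 µM or never reaching half activation.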

This experiment deals with Mu-type opioid receptor (Homo sapiens) (UniProt P35372). Kind of experiment: mu opioid receptor activation potency – cell-based, luminescence, dose response, powder samples, counter-screen for mouse HTR2A agonist project, late-stage follow-up (AID 720642). To be noted: U2OS OPRM1 beta-arrestin complementation.
Sequence of Mu-type opioid receptor (Homo sapiens) (P35372 whole entry, looked up): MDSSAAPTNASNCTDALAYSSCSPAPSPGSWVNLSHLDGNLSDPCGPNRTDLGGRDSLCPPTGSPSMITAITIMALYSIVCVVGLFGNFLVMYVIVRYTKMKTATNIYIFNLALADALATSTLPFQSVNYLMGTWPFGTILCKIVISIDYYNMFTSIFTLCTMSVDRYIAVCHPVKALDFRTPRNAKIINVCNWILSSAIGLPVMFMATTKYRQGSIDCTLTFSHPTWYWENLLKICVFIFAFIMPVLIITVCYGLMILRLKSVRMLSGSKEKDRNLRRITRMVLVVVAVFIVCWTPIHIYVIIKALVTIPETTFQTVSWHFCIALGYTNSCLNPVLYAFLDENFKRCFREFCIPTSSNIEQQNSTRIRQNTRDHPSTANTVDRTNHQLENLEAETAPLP
On to `COc1ccc(CN2CCN(c3ncccn3)CC2)c(C)c1C`, for which the EC50 is > 92.5 µM (inactive). On to `COc1ccc(CN2CCN(C(=O)c3ccco3)CC2)cc1OCc1ccccc1`, for which the EC50 was > 92.5 µM (inactive). Consider `COc1ccc(CN2CCN(c3ncccn3)CC2)c(OC)c1`, for which the EC50 is > 92.5 µM (inactive).

Consider `O=C(CN1CCN(c2ccccn2)CC1)Nc1ccc(Oc2ccccc2)cc1`, for which the EC50 is > 92.5 µM (inactive). To `CC1CC(C)CN(CCOc2cccc(Cl)c2Cl)C1` (centres undefined) belongs > 92.5 µM (inactive). For `COc1cccc(OCC(O)CN2CCN(c3ccccn3)CC2)c1` (centres undefined), the EC50 was > 92.5 µM (inactive).

On to `CCOc1ccc(NC(=O)CCN2CCN(c3ccccc3F)CC2)cc1`, for which the EC50 was > 92.5 µM (inactive). As for `Brc1ccc(CN2CCN(c3ccccn3)CC2)s1`, the EC50 was > 92.5 µM (inactive). With `Cc1ccc(CN2CCN(c3ccccn3)CC2)s1`, the EC50 is > 92.5 µM (inactive).

In the case of `CCOC(=O)C1CCN(Cc2cccc(Oc3ccc(Cl)cc3)c2)CC1`, the EC50 was > 92.5 µM (inactive). In the case of `CCCN(CCC)C1CCc2cccc(O)c2C1` (centres undefined), the EC50 is > 92.5 µM (inactive). As to `CCOc1cc(CN2CCN(C(=O)c3ccco3)CC2)ccc1OC`, the EC50 was > 92.5 µM (inactive). `Cn1cc(C(F)(F)F)nc1-c1ccc(OCC(O)CNCCOc2ccc(O)c(C(N)=O)c2)cc1` (centres undefined): the EC50 was > 92.5 µM (inactive). Consider `c1ccc(CN2CCN(c3ncccn3)CC2)cc1`, for which the EC50 was > 92.5 µM (inactive). Turning to `CCc1ccc(CN2CCN(C(=O)c3ccco3)CC2)cc1`, the EC50 is > 92.5 µM (inactive). The same measure for `CC(COc1ccccc1)N1CCC(CO)(Cc2ccccc2)CC1` (centres undefined): > 92.5 µM (inactive); for `COc1cc(Br)cc(CN2CCN(c3ncccn3)CC2)c1O`: > 92.5 µM (inactive). With `Cc1ccsc1CN1CCN(c2ccccn2)CC1`, the EC50 is > 92.5 µM (inactive). For the compound `CCn1c(=O)cc(SCC(=O)NCCCN2CCN(c3ccccc3F)CC2)c2ccccc21`, the EC50 was > 92.5 µM (inactive). For `CC1(C)C(C=C(Cl)Cl)C1C(=O)N1CCN(Cc2ccccc2)CC1` (centres undefined), the EC50 is > 92.5 µM (inactive).

For the compound `CC(C)C[C@H]1C(=O)N2CCC[C@H]2[C@]2(O)O[C@](NC(=O)[C@@H]3C=C4c5cccc6[nH]c(Br)c(c56)CC4N(C)C3)(C(C)C)C(=O)N12` (some centres undefined), the EC50 is > 92.5 µM (inactive). For the compound `c1ccc(N2CCN(Cc3ccsc3)CC2)nc1`, the EC50 is > 92.5 µM (inactive). The same measure for `CCCN1CCC[C@H](c2cccc(O)c2)C1`: > 92.5 µM (inactive).

In the case of `CCOC(=O)N1CCN(Cc2ccc(OCC(O)CN3CCCCC3)cc2)CC1` (centres undefined), the EC50 is > 92.5 µM (inactive).

As for `c1ccc(COc2ccc(CN3CCN(c4ccccn4)CC3)cc2)cc1`, the EC50 was > 92.5 µM (inactive). To `CC(CCc1ccc(O)cc1)NCCc1ccc(O)c(O)c1` (centres undefined) belongs > 92.5 µM (inactive); to `Fc1ccccc1CN1CCN(c2ncccn2)CC1`, > 92.5 µM (inactive).

On to `CN(c1ccc(C(=O)N2CCN(Cc3ccccc3)CC2)cc1)S(=O)(=O)c1ccc(Cl)cc1`, for which the EC50 is > 92.5 µM (inactive). In the case of `Clc1ccccc1CN1CCN(c2ncccn2)CC1`, the EC50 was > 92.5 µM (inactive).

Consider `COc1cccc(-n2cc(CNCc3cn(C)nc3-c3ccccc3F)cn2)c1`, for which the EC50 was > 92.5 µM (inactive).

For `CC(=O)N1CCC(N2CCN(c3ccccc3F)CC2)CC1`, the EC50 was > 92.5 µM (inactive).

For the compound `Brc1cccc(CN2CCN(c3ncccn3)CC2)c1`, the EC50 was > 92.5 µM (inactive). As to `NC1CCc2cc(O)c(O)cc2C1` (centres undefined), the EC50 is > 92.5 µM (inactive). As to `O=C(c1ccco1)N1CCN(Cc2ccc(Cl)cc2)CC1`, the EC50 is > 92.5 µM (inactive).

With `Cc1ccc(CN2CCN(c3ncccn3)CC2)c(C)c1`, the EC50 is > 92.5 µM (inactive). To `Cc1ccc(CN2CCN(c3ncccn3)CC2)o1` belongs > 92.5 µM (inactive); to `Cc1cccc(CN2CCN(c3ncccn3)CC2)c1`, > 92.5 µM (inactive). For `OC(COc1ccc2cc(Br)ccc2c1)CN1CCN(c2ccccn2)CC1` (centres undefined), the EC50 is > 92.5 µM (inactive). `COc1ccc(CC2(CO)CCN(Cc3cc4ccccc4o3)CC2)cc1`: the EC50 was > 92.5 µM (inactive).

On to `Oc1ccc(CN2CCN(c3ncccn3)CC2)cc1`, for which the EC50 was > 92.5 µM (inactive). As for `OCC1(Cc2cccc(C(F)(F)F)c2)CCN(Cc2cc3ccccc3o2)CC1`, the EC50 was > 92.5 µM (inactive). The same measure for `Fc1cccc(CN2CCN(c3ncccn3)CC2)c1`: > 92.5 µM (inactive); for `Cc1cccc(CN2CCN(c3ccccn3)CC2)c1`: > 92.5 µM (inactive).

For `Clc1ccc(CN2CCN(c3ncccn3)CC2)cc1Cl`, the EC50 was > 92.5 µM (inactive). To `CC(=O)N1CCc2cc(C(=O)CN3CCN(c4cccc(Cl)c4)CC3)ccc21` belongs > 92.5 µM (inactive). As to `Fc1ccc(F)c(CN2CCN(c3ncccn3)CC2)c1`, the EC50 is > 92.5 µM (inactive).

As for `COc1cc(CN2CCN(c3ncccn3)CC2)cc(OC)c1`, the EC50 was > 92.5 µM (inactive). To `NC[C@@H]1O[C@H](C23CC4CC(CC(C4)C2)C3)Cc2c1ccc(O)c2O` belongs > 92.5 µM (inactive); to `Clc1ccc(CN2CCN(c3ncccn3)CC2)cc1`, > 92.5 µM (inactive). To `COc1ccc(CN2CCN(c3ccccn3)CC2)c(OC)c1` belongs > 92.5 µM (inactive); to `CCCN1C[C@H](CSC)C[C@@H]2c3cccc4[nH]cc(c34)C[C@H]21`, > 92.5 µM (inactive); to `C=CCN1CCc2nc(N)sc2CC1`, > 92.5 µM (inactive). With `COc1ccccc1C(=O)NCCN1CCN(c2ccccc2)CC1`, the EC50 was > 92.5 µM (inactive). The same measure for `Clc1ccccc1CN1CCN(c2ccccc2)CC1`: > 92.5 µM (inactive).
